“Also recorded” adds a separate entry of the source.
Assays:
[1] = system: WBC and neutrophil counts; test: WBC and absolute neutrophil counts (ANC) in baboons; assay type: in vivo, baboon
Method: FIG. 12 is a graph showing increase in both white blood cells (WBC) and Absolute neutrophil counts (ANC) after oral administration of 200 mg/kg ST7S on days 0-4 results in a 3-fold stimulation in WBC and neutrophil counts over 6 days.
In particular, oral administration of ST7 to a baboon results in a 3-fold stimulation of WBC count over 6 days (FIG. 2A).

[2] = Oral administration to a normal human subject, plasma levels; assay type: in vivo
Method: (§1) FIGS. 8A-8B show […] and oral bioavailability of ST7. […] Target does equivalent to 20 mg/kg in an adult human.
(§2) Accordingly, ST7 is suitable for once/day dosing.

[3] = system: platelet counts; test: Platelet counts in nonhuman primates; assay type: in vivo, baboon; settings: IV to 3 baboons on days 1-3 and 7-9
Method: ST7 was administered via IV to baboons on days 1-3 and 7-9. ST7 works as similarly in all three baboons (Baboon numbers: GG24, FM45, FM83).
Administration of ST7 also increases platelet levels after administration to non-human primates.

[4] = PK profiles after oral and IV administration in baboons; assay type: in vivo
Method: as §1, §2

[5] = system: sub-lethally irradiated mouse model; test: Sub-lethally irradiated (6 Gy) mouse model, ANC; assay type: in vivo, mice; set-up: platelet level, level below which decrease was prevented at any timepoint / ANC, level below which decline was prevented at any time: unit not given here
Method: FIG. 9 is a graph of absolute neutrophil count (ANC) response to NaST7 (500 mg/kg IP and 300 mg/kg IP) after sub-lethal does of irradiation where mice were exposed to 6 Gy irradiation on day 0 and daily ST7 (enantiomer) was administered at two doses, beginning day 1.
(§3) In particular, absolute neutrophil count (ANC) increased after administration of NaST7 (500 mg/kg IP and 300 mg/kg IP) after sub-lethal does of irradiation (e.g., exposure to 6 Gy irradiation on day 0).

[6] = system: erythropoiesis and myelopoiesis; test: In vitro cell culture testing of stimulation of erythropoiesis and myelopoiesis; assay type: cell-based; settings: for concentration giving stimulation of erythropoiesis and myelopoiesis: cell culture, data not shown
Description: ST7S is shown to stimulate myelopoiesis and erythropoiesis in animal subjects. […] Thus, the employed concentration of S isomer is about 4-fold lower than that of racemate to achieve similar degrees of erythropoiesis and myelopoiesis.

[7] = system: erythropoiesis; test: Oral ST7 in baboon with daily phlebotomy, chronic anemia; assay type: in vivo; settings: oral 50 mg/kg per day, 5 days a week over 3 weeks
[8] = system: cultured normal human neutophils; test: Human neutrophil survival in vitro; assay type: cell-based; settings: 200 μM, 50 μM
Description: (§4) FIG. 7A is a histogram showing hemokines SCFADs induce anti-apoptotic proteins. FIG. 7B is a western blot of Mcl-1L to Mcl-1S protein expression (with β-actin as a protein loading control).

[9] = system: Mcl-1L to Mcl-1S; test: Western blot of Mcl-1L to Mcl-1S protein expression (anti-apoptotic proteins); assay type: cell-based; settings: after exposure
Description: as §4

[10] = system: erythropoiesis; test: ST7 once daily to mice for 5 days: erythropoiesis (hematocrit, hemoglobin); assay type: in vivo; settings: once daily for 5 days, by day 14
[11] = system: human hematopoietic cultures; test: CFU-GM colony formation in human hematopoietic cultures; assay type: cell-based
[12] = system: Chemotherapy-Induced Neutropenia Murine Model; test: Chemotherapy (5-FU)-induced neutropenia murine model; assay type: in vivo, mice
Method: Mice were treated with 5-FU on day 0, then received daily SC injection of saline or ST7 or G-CSF beginning on Day 1 and absolute neutrophil counts (ANC) were assessed on days 0, 9 and 13.
Additionally, administration of ST7 also enhances Myeloid Recovery in a Chemotherapy-Induced Neutropenia Murine Model. Mice were treated with 5-FU on day 0, then received daily SC injection of saline (control) or ST7 or G-CSF beginning on Day 1 and the absolute neutrophil counts (ANC) were assessed on days 0, 9 and 13.

[13] = system: bone marrow; test: Lethally-irradiated murine model, bone marrow histology; assay type: in vivo, mice; settings: LD90 irradiation day 0, daily SC from day 1, day 15
Method: Mice were irradiated at LD90 on day 0, and received daily SC injections of ST7-S or saline (control) starting Day 1. Bone marrow was examined on Day 15.
as §3

[14] = oral 200 mg/kg on days 0-4, over 6 days

CC(Cc1ccccc1)C(=O)O (racemic) [ST7, α-methyl-hydrocinnamic acid]
stimulation of WBC count ([1]; baboon, oral, over 6 days): 3 fold | drug levels relative to target dose ([2]; normal human subject, oral 1 or 1.4 grams): persist above the target dose for several hours | platelet count [3]: stimulation of platelet count in all animals; also recorded: increased platelet counts | bioavailability ([4]; baboon, in vivo, po, non-human primates, 113 mg/kg): > 90% | PK profiles oral versus IV ([4]; non-human primates): nearly identical PK profiles | ANC, level below which decline was prevented at any time ([5]; 500 mg/kg IP and 300 mg/kg IP daily from day 1, 6 Gy on day 0): ≥ 200 | platelet level, level below which decrease was prevented at any timepoint ([5]; 500 mg/kg IP and 300 mg/kg IP daily from day 1, sub-lethal irradiation): ≥ 200 | concentration giving stimulation of erythropoiesis and myelopoiesis [6]: about 200 μM | absolute increase in hematocrit level [7]: 7 percentage points | increase in hematocrit level, % of baseline [7]: 28% | increase in total hemoglobin level [7]: 2.5 g/dL | apoptosis of neutrophils [8]: suppresses apoptosis | ratios of Mcl-1L to Mcl-1S [9]: shifted towards anti-apoptotic actions | hematocrit [10]: significant increase in hematocrit | CFU-GM colony formation [11]: increases CFU-GM Colony formation | recovery of ANC ([12]; 5-FU day 0, daily SC injection from day 1, day 13): accelerated recovery of ANC by day 13 as efficiently as G-CSF | increase in NE (K/μL) as compared to saline control ([12]; day 13): 7-10 fold

CC(Cc1ccccc1)C(=O)[O-].[Na+] (stereo not drawn) [ST7S, S-isomer of alpha-methyl-hydrocinnamic acid]
neutrophil counts (ANC), short-term administration ([1]; baboons, 100 mg/kg at day 0-2 and day 7-9): increases neutrophil counts | neutrophil counts (ANC), long term ([1]; baboons, 47 days, administered at 1-5 days and 34-38 days): increases neutrophil counts; also recorded: Neutrophil counts increase | stimulation in WBC [1, 14]: 3 fold | stimulation in neutrophil counts [1, 14]: 3 fold | time available after administration ([2]; about 1.4 g administered orally, FIG. 8B): at least 14 hours | time available after administration ([4]; about 113 mg/kg administered orally, FIG. 8A): at least 4 hours | fold lower concentration of S isomer than racemate for similar degrees of erythropoiesis and myelopoiesis [6]: about 4 fold | concentration giving stimulation of erythropoiesis and myelopoiesis [6]: about 50 μM | bone marrow histology [13]: stimulates bone marrow recovery; also recorded: normocellular marrows
